Test results from paper PMC5615155 (Toxicology Reports, 2017).
Like-named read-outs stand apart in the source and are kept apart here.

Experiments:
[1] = in vitro microsomal metabolism; type: in vitro ADME, human; conditions: 10 μM, 0.5 mg/mL, +NADPH, 120 min
[2] = in vitro microsomal metabolism; type: in vitro ADME, Sprague-Dawley rat; conditions: 10 μM, 0.5 mg/mL, +NADPH, 120 min
[3] = test system: S. typhimurium strains TA98, TA100, TA1535, TA1537; conditions: up to 5000 μg/plate, with and without metabolic activation; cited from earlier work
E. coli strain WP2 uvrA = conditions: up to 5000 μg/plate, with and without metabolic activation; cited from earlier work
[4] = cited from earlier work
HPBLs = conditions: cited from earlier work
CHO-WBL cells = conditions: ± metabolic activation, up to 2500 μg/mL; cited from earlier work
[5] = male mice, 2000 mg/kg bw; cited from earlier work
[6] = Day 1 of 90-day study, cited from earlier work

## O=C1CC2(CCCC2)CC(=O)N1CCCCN1CCN(c2ncccn2)CC1 [Buspirone, reference compound]
[1]
  % MS (EIC) peak area of parent relative to time 0: 2%
[2]
  % MS (EIC) peak area of parent relative to time 0: 21%

## CC(C)CC(=O)N1CCC[C@H](COc2cccc3c2C(N)=NS(=O)(=O)N3)C1 [S617, (S)-1-(3-(((4-amino-2,2-dioxido-1H-benzo[c][1,2,6]thiadiazin-5-yl)oxy)methyl)piperidin-1-yl)-3-methylbutan-1-one]
[3]
  bacterial reverse mutation result: non-mutagenic
E. coli strain WP2 uvrA
  bacterial reverse mutation result: non-mutagenic
[4]; iv 1.0 mg/kg, F
  AUClast: 212 ng·h/mL
  Cmax: 1308 ng/mL
  Tmax: 0.03 h
[4]; iv 1.0 mg/kg, M
  AUClast: 263 ng·h/mL
  Cmax: 1663 ng/mL
  Tmax: 0.03 h
[4]; oral gavage 10 mg/kg, F
  %F: 1.73%
  AUClast: 36.7 ng·h/mL
  Cmax: 4.80 ng/mL
  Tmax: 0.88 h
  t1/2: 4.25 h
[4]; oral gavage 10 mg/kg, M
  %F: 0.67%
  AUClast: 17.5 ng·h/mL
  Cmax: 3.30 ng/mL
  Tmax: 0.44 h
  t1/2: 3.85 h
[4]; oral gavage 30 mg/kg, F
  %F: 0.89%
  AUClast: 56.3 ng·h/mL
  Cmax: 9.40 ng/mL
  Tmax: 1.38 h
  t1/2: 3.57 h
[4]; oral gavage 30 mg/kg, M
  %F: 0.54%
  AUClast: 42.5 ng·h/mL
  Cmax: 7.10 ng/mL
  Tmax: 1.25 h
  t1/2: 3.03 h
[4]; oral gavage 100 mg/kg, F
  %F: 0.44%
  AUClast: 92.6 ng·h/mL
  Cmax: 18.3 ng/mL
  Tmax: 0.50 h
  t1/2: 1.45 h
[4]; oral gavage 100 mg/kg, M
  %F: 0.20%
  AUClast: 53.2 ng·h/mL
  Cmax: 10.1 ng/mL
  Tmax: 1.38 h
  t1/2: 3.48 h
HPBLs
  chromosome aberration result: non-clastogenic
CHO-WBL cells
  in vitro micronucleus result: neither clastogenic nor aneugenic

## CCCNC(=O)C(C)(C)COc1cccc2c1C(N)=NS(=O)(=O)N2 [S6973, 3-((4-amino-2,2-dioxido-1H-benzo[c][1,2,6]thiadiazin-5-yl)oxy)-2,2-dimethyl-N-propylpropanamide]
[3]
  bacterial reverse mutation result: non-mutagenic
E. coli strain WP2 uvrA
  bacterial reverse mutation result: non-mutagenic
[4]; iv 2.5 mg/kg, M
  AUClast: 1760 ng·h/mL
  Cmax: 3997 ng/mL
  Tmax: 0.083 h
  t1/2: 0.78 h
[4]; oral gavage 5.0 mg/kg, M
  %F: 9.56%
  AUClast: 337 ng·h/mL
  Cmax: 74.8 ng/mL
  Tmax: 1.33 h
  t1/2: 3.67 h
[4]; oral gavage 10 mg/kg, M
  %F: 6.43%
  AUClast: 453 ng·h/mL
  Cmax: 103 ng/mL
  Tmax: 1.00 h
  t1/2: 2.98 h
[4]; oral gavage 20 mg/kg, M
  %F: 3.93%
  AUClast: 553 ng·h/mL
  Cmax: 111 ng/mL
  Tmax: 1.33 h
  t1/2: 4.53 h
HPBLs
  chromosome aberration result: non-clastogenic
[5]
  in vivo micronucleus result: neither clastogenic nor aneugenic
[6]; 5.0 mg/kg bw
  bioavailability, food ad-mix: 8.04%
[6]; 20 mg/kg bw
  bioavailability, food ad-mix: 7.73%
